Experimental data as given in patent US5380715A, “Ap4 A as a hypotensive agent” (Fujirebio Inc., priority 1992, dated 1995).
Read-outs that look alike come from different tables or passages of the source.

Tests used:
[1] = system: rabbit platelet aggregation; assay: Inhibitory effect on rabbit platelet aggregation; assay type: cell-based; conditions: rabbit PRP
Procedure: Fresh blood samples were collected from male Japanese white rabbits weighing 2-3 kg. Blood was anticoagulated with citric acid (1 ml 3.8% citric acid solution +9 ml blood). These samples were centrifuged at room temperature for 20 min at 200×g to obtained platelet-rich plasma (PRP). Furthermore, the supernatant liquid was centrifuged for 10 min at 1500×g to obtained platelet-poor plasma (PPP). Aggregation of platelests was measured photometrically in a Nihon Kohden hema tracer equipped with a mechanical stirring device and with a chart record. At this time, the chart recorder was calibrated as follows: the light transmission obtained with PPP was set as 100% transmission and the optical density of PRP was taken as 0% transmission. Maximal aggregation, i.e. the maximal change in optical density of the primary wave calculated in percent light transmission. From the study, it was determined that ADP, Ap3A, PAF(platelet activating factor) and collagen induced maximal aggregations at a concentration of 1×10^-5 M, 1×10^-4 M, 1.9×10^-7 M and 5 μg/kg, respectively. In the following studies, these aggregating agents were used at maximal dose. The effect of Ap4A on platelet aggregation by ADP and Ap3A were tested. In this time, Ap4A was pretreated for 1 or 10 min before the addition of aggregating agents. Also, after the platelet aggregation was induced by addition of ADP, PAF or collagen to PRP, the platelet aggregate dispersing effect of Ap4A was tested.

[2] = words, cited from earlier work
dogs = assay: Gradual hypotension during anesthesia in dogs (hemodynamics, blood gas); assay type: in vivo, mongrel dogs; conditions: dog; for Arterial Carbonate Tension PaCO2 / Arterial Oxygen Tension PaO2 / Arterial pH (pH-a) / Body Temperature BT / Cardiac Output C.O. / Central Venous Pressure CVP / Dose / Heart Rate H.R. / Hematocrit Value Hct / Mean Blood Pressure B.P. (mean) / Mean Blood Pressure B.P. (Δ%) / Mixed Venous Carbonate Tension PvCO2 / Mixed Venous Oxygen Tension PvO2 / Mixed Venous pH (pH-v) / Pulmonary Artery Pressure PAM / Pulmonary Capillary Wedge Pressure PCWP: enflurane
Procedure: Dogs were anesthetized with enflurane. […] The mean blood pressure (B.P.), heart rate (H.R.), cardiac output (C.O.), arterial oxygen tension (PaO2), mixed venos oxygen tension (PvO2), arterial carbonate tension (PaCO2), mixed venous carbonate tension (PvCO2), arterial pH (pH-a), mixed venous pH (pH-v), and base excess thereof were measured.
Mongrel dogs weighing 9 to 17 kg were anesthetized with intravenous thiopental 20 mg/kg by bolus injection, followed by 1% enflurane in 40% O2 /N2 after endotracheal intubation. […] Bilateral femoral arteries were catheterized, one for the determination of blood pressure and the other for blood sampling.
Access to the bilateral femoral veins was obtained for the administration of Ap4A, PG E1 or nitroglycerin and for the insertion of a ballon-tipped thermodilution catheter. The electrocardiogram was continuously monitored. The control values were obtained before the administration of each of the above-mentioned three agents. Each agent was administered using a syringe pump at titrated doses to produce gradual 20%, 40%, 50%, 60%, and 80% decreases in the mean arterial pressure (MAP) from the control value.
After the target blood pressure and stable hemodynamic conditions were reached, the following parameters were measured: heart rate (HR), mean pulmonary artery pressure (PAM), pulmonary capillary wedge pressure (PCWP), and central venous pressure (CVP). Cardiac output (CO) was determined by the thermodilution method. Gas analyses of arterial and mixed venous bloods were performed using a blood gas analyzer.

rats [3] = assay: Recovery of blood pressure after gradual hypotension in rats; assay type: in vivo, male SD rats; conditions: rat
Procedure: FIG. 1 is a graph showing the recovery of the blood pressure of rats anesthetized with enflurane with time, when each of Ap4A ( ), PG E1 ( ) and nitroglycerin ( ) was used as a test drug to attain gradual hypotension, with the blood pressure before the administration of each test drug being set 100% for reference.
The recovery of blood pressure after gradual hypotension by use of each of Ap4A, PG E1 and nitroglycerin was also tested.
(§1) The control values were obtained before the administration of each test drug. Each test drug was then administered using a syringe in a dose-dependent manner for 15 minutes. The percentage (%) of the decrease of blood pressure was determined when stabilized. Changes in heart rate (H.R.) at the administration of each test drug were measured. Furthermore,the recovery of mean blood pressure after intravenous infusion of each test drug was also determined from the decrease in heart rate and the blood pressure at a maximum dose of each test drug.
In a test similar to the above, each of Ap4A, PG E1, and nitroglycerin was administered to rats, so that about 65% fall in blood pressure, about 55% fall in blood pressure, and about 35% fall in blood pressure were stepwise attained. With respect to each agent, the recovery of blood pressure was tested.

rats [4] = assay: Gradual hypotension during anesthesia in rats; assay type: in vivo, male SD rats; conditions: rat, enflurane
Procedure: Male SD rats (Charles River Japan Inc.) were anesthetized with intravenous thiopental 50 mg/kg as a bolus, followed by 1% enflurane in air.
A femoral artery was catheterized to monitor the blood pressure and heart rate, while a femoral vein was catheterized for the administration of each of the test drugs.
as §1

Compound: Nc1ncnc2c1ncn2[C@@H]1O[C@H](COP(=O)(O)OP(=O)(O)O)[C@@H](O)[C@H]1O [ADP, adenosine diphosphate, reference compound]
- concentration inducing maximal platelet aggregation [1]: 10 µM

Compound: Nc1ncnc2c1ncn2[C@@H]1O[C@H](COP(=O)(O)OP(=O)(O)OP(=O)(O)OC[C@H]2O[C@@H](n3cnc4c(N)ncnc43)[C@H](O)[C@@H]2O)[C@@H](O)[C@H]1O [Ap3A, diadenosine 5', 5'"-p^1,p^4 -triphosphate, reference compound]
- concentration inducing maximal platelet aggregation [1]: 100 µM

Compound: FC(F)(F)C(Cl)Br (stereo not drawn) [Halothane]
- shortcomings / adverse effects [2]: hepatotoxicity and sthenia of brain pressure

Compound: CCCCCCCCCCCCCCCCOCC(COP(=O)([O-])OCC[N+](C)(C)C)OC(C)=O (stereo not drawn) [PAF, reference compound]
- concentration inducing maximal platelet aggregation [1]: 0.19 µM

Compound: CCCCC[C@H](O)/C=C/[C@H]1[C@H](O)CC(=O)[C@@H]1CCCCCCC(=O)O [PG E1, prostaglandin E1, reference compound]
- Arterial Carbonate Tension PaCO2 (dogs; at -20% blood pressure): 37.3 ± 1.4 mmHg
- Arterial Oxygen Tension PaO2 (dogs; at -20% blood pressure): 251.6 ± 8.3 mmHg
- Arterial pH (pH-a) (dogs; at -20% blood pressure): 7.323 ± 0.015
- Body Temperature BT (dogs; at -20% blood pressure): 37.4 ± 0.6 °C
- Cardiac Output C.O. (dogs; at -20% blood pressure): 1.47 ± 0.18 L/min
- Central Venous Pressure CVP (dogs; at -20% blood pressure): 3.27 ± 0.59 mmHg
- Dose (dogs; at -20% blood pressure): 1.66 ± 0.48 µg/kg/min
- Heart Rate H.R. (dogs; at -20% blood pressure): 167.8 ± 8.6 beats/min
- Hematocrit Value Hct (dogs; at -20% blood pressure): 41.5 ± 2.9%
- Mean Blood Pressure B.P. (mean) (dogs; at -20% blood pressure): 107.2 ± 5.3
- Mean Blood Pressure B.P. (Δ%) (dogs; at -20% blood pressure): -20.3 ± 0.4%
- Mixed Venous Carbonate Tension PvCO2 (dogs; at -20% blood pressure): 41.3 ± 1.3 mmHg
- Mixed Venous Oxygen Tension PvO2 (dogs; at -20% blood pressure): 51.0 ± 1.0 mmHg
- Mixed Venous pH (pH-v) (dogs; at -20% blood pressure): 7.303 ± 0.009
- Pulmonary Artery Pressure PAM (dogs; at -20% blood pressure): 16.0 ± 3.8 mmHg
- Pulmonary Capillary Wedge Pressure PCWP (dogs; at -20% blood pressure): 9.0 ± 3.0 mmHg
- Arterial Carbonate Tension PaCO2 (dogs; at -40% blood pressure): 36.0 ± 0.7 mmHg
- Arterial Oxygen Tension PaO2 (dogs; at -40% blood pressure): 249.3 ± 6.0 mmHg
- Arterial pH (pH-a) (dogs; at -40% blood pressure): 7.334 ± 0.012
- Body Temperature BT (dogs; at -40% blood pressure): 37.3 ± 0.6 °C
- Cardiac Output C.O. (dogs; at -40% blood pressure): 1.20 ± 0.14 L/min
- Central Venous Pressure CVP (dogs; at -40% blood pressure): 3.12 ± 0.47 mmHg
- Dose (dogs; at -40% blood pressure): 3.61 ± 1.01 µg/kg/min
- Heart Rate H.R. (dogs; at -40% blood pressure): 155.5 ± 9.1 beats/min
- Hematocrit Value Hct (dogs; at -40% blood pressure): 39.8 ± 3.3%
- Mean Blood Pressure B.P. (mean) (dogs; at -40% blood pressure): 79.8 ± 4.6
- Mean Blood Pressure B.P. (Δ%) (dogs; at -40% blood pressure): -40.7 ± 0.5%
- Mixed Venous Carbonate Tension PvCO2 (dogs; at -40% blood pressure): 39.7 ± 1.0 mmHg
- Mixed Venous Oxygen Tension PvO2 (dogs; at -40% blood pressure): 50.0 ± 1.9 mmHg
- Mixed Venous pH (pH-v) (dogs; at -40% blood pressure): 7.286 ± 0.012
- Pulmonary Artery Pressure PAM (dogs; at -40% blood pressure): 13.3 ± 3.0 mmHg
- Pulmonary Capillary Wedge Pressure PCWP (dogs; at -40% blood pressure): 6.8 ± 2.1 mmHg
- Arterial Carbonate Tension PaCO2 (dogs; at -50% blood pressure): 36.9 ± 1.0 mmHg
- Arterial Oxygen Tension PaO2 (dogs; at -50% blood pressure): 251.7 ± 9.3 mmHg
- Arterial pH (pH-a) (dogs; at -50% blood pressure): 7.303 ± 0.017
- Body Temperature BT (dogs; at -50% blood pressure): 37.2 ± 0.6 °C
- Cardiac Output C.O. (dogs; at -50% blood pressure): 1.17 ± 0.11 L/min
- Central Venous Pressure CVP (dogs; at -50% blood pressure): 3.48 ± 0.56 mmHg
- Dose (dogs; at -50% blood pressure): 4.77 ± 1.14 µg/kg/min
- Heart Rate H.R. (dogs; at -50% blood pressure): 143.3 ± 7.3 beats/min
- Hematocrit Value Hct (dogs; at -50% blood pressure): 40.0 ± 3.5%
- Mean Blood Pressure B.P. (mean) (dogs; at -50% blood pressure): 67.5 ± 3.4
- Mean Blood Pressure B.P. (Δ%) (dogs; at -50% blood pressure): -49.8 ± 0.2%
- Mixed Venous Carbonate Tension PvCO2 (dogs; at -50% blood pressure): 41.6 ± 0.6 mmHg
- Mixed Venous Oxygen Tension PvO2 (dogs; at -50% blood pressure): 53.3 ± 4.5 mmHg
- Mixed Venous pH (pH-v) (dogs; at -50% blood pressure): 7.278 ± 0.015
- Pulmonary Artery Pressure PAM (dogs; at -50% blood pressure): 12.8 ± 2.7 mmHg
- Pulmonary Capillary Wedge Pressure PCWP (dogs; at -50% blood pressure): 6.7 ± 2.0 mmHg
- Arterial Carbonate Tension PaCO2 (dogs; at -60% blood pressure): 36.8 ± 1.0 mmHg
- Arterial Oxygen Tension PaO2 (dogs; at -60% blood pressure): 253.2 ± 11.92 mmHg
- Arterial pH (pH-a) (dogs; at -60% blood pressure): 7.308 ± 0.022
- Body Temperature BT (dogs; at -60% blood pressure): 36.9 ± 0.7 °C
- Cardiac Output C.O. (dogs; at -60% blood pressure): 1.04 ± 0.10 L/min
- Central Venous Pressure CVP (dogs; at -60% blood pressure): 3.70 ± 0.76 mmHg
- Dose (dogs; at -60% blood pressure): 5.91 ± 1.49 µg/kg/min
- Heart Rate H.R. (dogs; at -60% blood pressure): 134.6 ± 7.2 beats/min
- Hematocrit Value Hct (dogs; at -60% blood pressure): 38.4 ± 4.5%
- Mean Blood Pressure B.P. (mean) (dogs; at -60% blood pressure): 56.0 ± 4.3
- Mean Blood Pressure B.P. (Δ%) (dogs; at -60% blood pressure): -58.1 ± 1.3%
- Mixed Venous Carbonate Tension PvCO2 (dogs; at -60% blood pressure): 40.6 ± 1.2 mmHg
- Mixed Venous Oxygen Tension PvO2 (dogs; at -60% blood pressure): 49.9 ± 3.1 mmHg
- Mixed Venous pH (pH-v) (dogs; at -60% blood pressure): 7.275 ± 0.016
- Pulmonary Artery Pressure PAM (dogs; at -60% blood pressure): 12.4 ± 3.4 mmHg
- Pulmonary Capillary Wedge Pressure PCWP (dogs; at -60% blood pressure): 6.2 ± 2.2 mmHg
- effect on arterial pH / venous pH (dogs; result in words): significantly decrease arterial pH or have a tendency to decrease arterial pH
- effect on carbonate tension (dogs; result in words): almost no effects on the oxygen tension and carbonate tension
- effect on heart rate (dogs; result in words): tendency to increase the heart rate when a 20% or less fall in blood pressure is attained
- effect on oxygen tension (dogs; result in words): almost no effects on the oxygen tension and carbonate tension
- recovered blood pressure (before administration = 100%) (rats [3]; 15 minutes): about 85%
- fall in blood pressure attained before recovery (rats [3]; stepwise): about 55%
- rapidness of the recovery of blood pressure (rats [3]; order in words): Ap4A>PG E1 >nitroglycerin
- Blood Pressure (Δ%) (rats [4]; infusion 0.03 μg/kg/min): 0%
- Heart Rate (Δ%) (rats [4]; infusion 0.03 μg/kg/min): 0%
- Blood Pressure (Δ%) (rats [4]; infusion 0.1 μg/kg/min): 0%
- Heart Rate (Δ%) (rats [4]; infusion 0.1 μg/kg/min): 0%
- Blood Pressure (Δ%) (rats [4]; infusion 0.3 μg/kg/min): -1.9 ± 1.9%
- Heart Rate (Δ%) (rats [4]; infusion 0.3 μg/kg/min): -0.3 ± 0.3%
- Blood Pressure (Δ%) (rats [4]; infusion 1 μg/kg/min): -9.8 ± 3.1%
- Heart Rate (Δ%) (rats [4]; infusion 1 μg/kg/min): -1.2 ± 1.4%
- Blood Pressure (Δ%) (rats [4]; infusion 3 μg/kg/min): -26.2 ± 4.0%
- Heart Rate (Δ%) (rats [4]; infusion 3 μg/kg/min): -8.0 ± 3.4%
- Blood Pressure (Δ%) (rats [4]; infusion 10 μg/kg/min): -48.0 ± 2.7%
- Heart Rate (Δ%) (rats [4]; infusion 10 μg/kg/min): -13.6 ± 2.9%

Compound: O=C1N(Cc2ccccc2)C2C[S+]3CCCC3C2N1Cc1ccccc1 (stereo not drawn) [trimethaphan, Trimethaphan]
- shortcomings / adverse effects [2]: renal insufficiency because of tubular impairment near the kidney, tachyphylaxis, tachycardia, and mydriasis after its use
- shortcomings / adverse effects ([2]; listed as Trimethaphan): cardiac contractility, cardiac output, and coronary blood flow are decreased by the ganglionic blockade thereof and histamine liberation effect is increased

Compound: collagen [reference compound]
- concentration inducing maximal platelet aggregation [1]: 5 µg/kg
